The values below come from ChEMBL document CHEMBL5113522, “Discovery of CH7057288 as an Orally Bioavailable, Selective, and Potent pan-TRK Inhibitor” (J Med Chem, 2022).

For one data set, the target named is CYP3A4 (Homo sapiens, UniProt P08684). Briefly: Induction of CYP3A4 in human hepatocytes assessed as fold induction at 1 uM using testosterone as substrate preincubated with replacement of fresh medium containing compound every 24 hrs for 72 hrs followed by substrate addition and measured after 1 hr by LC-MS/MS analysis relative to control. It is filed as ADME, cell-based, Hepatocyte. As to conditions: probe testosterone, time 73 hrs, read-out: FC.
CYP3A4, sequence (P08684 whole entry): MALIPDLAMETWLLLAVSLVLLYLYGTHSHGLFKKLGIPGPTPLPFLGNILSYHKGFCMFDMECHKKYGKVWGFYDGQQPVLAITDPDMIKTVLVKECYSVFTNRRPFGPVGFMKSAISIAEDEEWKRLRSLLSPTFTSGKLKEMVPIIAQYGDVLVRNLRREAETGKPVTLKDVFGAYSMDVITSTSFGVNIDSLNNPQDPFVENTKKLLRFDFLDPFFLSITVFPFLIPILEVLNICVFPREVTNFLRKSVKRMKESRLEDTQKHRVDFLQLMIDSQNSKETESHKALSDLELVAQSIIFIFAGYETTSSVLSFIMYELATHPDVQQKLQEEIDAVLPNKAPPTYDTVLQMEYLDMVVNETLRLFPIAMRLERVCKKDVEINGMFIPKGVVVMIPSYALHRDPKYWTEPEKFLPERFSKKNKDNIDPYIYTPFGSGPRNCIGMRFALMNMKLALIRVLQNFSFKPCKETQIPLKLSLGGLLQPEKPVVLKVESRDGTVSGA

The subject of a further data set is NIH3T3. Briefly: Antiproliferative activity against […] NIH3T3 cells expressing MPRIP-NTRK1 assessed as cell growth inhibition incubated for 4 to 7 days by CellTiter-Glo Luminescent Cell Viability Assay. It counts as functional, cell-based. Conditions: Mus musculus.
The target in data set [1] is Tyrosine-protein kinase Lck (Homo sapiens, UniProt P06239). Briefly: Inhibition of LCK (unknown origin).
Tyrosine-protein kinase Lck, sequence (P06239 whole entry): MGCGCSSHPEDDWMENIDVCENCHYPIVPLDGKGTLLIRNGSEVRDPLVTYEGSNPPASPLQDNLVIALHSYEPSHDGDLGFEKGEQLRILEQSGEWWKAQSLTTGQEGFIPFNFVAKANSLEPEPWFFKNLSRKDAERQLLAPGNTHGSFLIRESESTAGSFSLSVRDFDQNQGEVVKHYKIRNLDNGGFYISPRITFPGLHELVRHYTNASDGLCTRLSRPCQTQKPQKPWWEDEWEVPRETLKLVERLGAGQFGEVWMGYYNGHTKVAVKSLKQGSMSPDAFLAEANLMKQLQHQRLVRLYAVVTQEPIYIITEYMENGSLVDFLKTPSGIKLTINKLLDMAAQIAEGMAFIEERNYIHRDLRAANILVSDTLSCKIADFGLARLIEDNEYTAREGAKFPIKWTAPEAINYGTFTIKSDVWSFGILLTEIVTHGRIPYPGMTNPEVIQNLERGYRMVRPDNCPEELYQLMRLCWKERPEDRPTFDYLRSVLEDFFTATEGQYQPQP
For data set [2], the target named is High affinity nerve growth factor receptor (Homo sapiens, UniProt P04629). The data set is described as follows: Inhibition of TRKA (unknown origin).
High affinity nerve growth factor receptor, sequence (P04629 whole entry): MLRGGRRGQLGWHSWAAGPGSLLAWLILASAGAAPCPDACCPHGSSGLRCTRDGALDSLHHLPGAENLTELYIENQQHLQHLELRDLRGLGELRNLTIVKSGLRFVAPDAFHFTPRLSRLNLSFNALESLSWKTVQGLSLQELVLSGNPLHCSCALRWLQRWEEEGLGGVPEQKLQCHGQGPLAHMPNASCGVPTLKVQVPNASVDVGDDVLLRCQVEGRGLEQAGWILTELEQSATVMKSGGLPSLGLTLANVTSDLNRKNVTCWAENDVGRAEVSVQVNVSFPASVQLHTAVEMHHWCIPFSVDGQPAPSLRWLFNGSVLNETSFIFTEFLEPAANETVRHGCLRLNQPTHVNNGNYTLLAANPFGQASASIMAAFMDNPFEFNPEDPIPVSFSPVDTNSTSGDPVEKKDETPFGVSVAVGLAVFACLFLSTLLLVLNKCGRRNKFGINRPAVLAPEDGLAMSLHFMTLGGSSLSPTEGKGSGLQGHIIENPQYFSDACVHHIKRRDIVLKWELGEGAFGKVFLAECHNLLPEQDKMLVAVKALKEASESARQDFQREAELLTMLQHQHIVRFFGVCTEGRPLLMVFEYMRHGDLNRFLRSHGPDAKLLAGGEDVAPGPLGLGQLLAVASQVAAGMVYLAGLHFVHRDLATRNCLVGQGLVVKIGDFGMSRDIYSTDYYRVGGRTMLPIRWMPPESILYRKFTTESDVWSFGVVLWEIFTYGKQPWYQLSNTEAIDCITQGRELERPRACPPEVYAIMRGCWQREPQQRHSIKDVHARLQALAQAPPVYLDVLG
Data set [3] concerns the target Vascular endothelial growth factor receptor 2 (Homo sapiens, UniProt P35968). The data set is described as follows: Inhibition of KDR (unknown origin).
Data set [4] has as its target RAF proto-oncogene serine/threonine-protein kinase (Homo sapiens, UniProt P04049). The data set is described as follows: Inhibition of RAF1 (unknown origin).
For data set [5], the target named is Receptor tyrosine-protein kinase erbB-2 (Homo sapiens, UniProt P04626). Briefly: Inhibition of HER2 (unknown origin).
For data set [6], the target named is Fibroblast growth factor receptor 2 (Homo sapiens, UniProt P21802). The data set is described as follows: Inhibition of FGFR2 (unknown origin).
Data set [7] deals with Proto-oncogene tyrosine-protein kinase Src (Homo sapiens, UniProt P12931). The data set is described as follows: Inhibition of Src (unknown origin).
The target in data set [8] is Serine/threonine-protein kinase Chk1 (Homo sapiens, UniProt O14757). Briefly: Inhibition of CHK1 (unknown origin).
Serine/threonine-protein kinase Chk1, sequence (O14757 whole entry): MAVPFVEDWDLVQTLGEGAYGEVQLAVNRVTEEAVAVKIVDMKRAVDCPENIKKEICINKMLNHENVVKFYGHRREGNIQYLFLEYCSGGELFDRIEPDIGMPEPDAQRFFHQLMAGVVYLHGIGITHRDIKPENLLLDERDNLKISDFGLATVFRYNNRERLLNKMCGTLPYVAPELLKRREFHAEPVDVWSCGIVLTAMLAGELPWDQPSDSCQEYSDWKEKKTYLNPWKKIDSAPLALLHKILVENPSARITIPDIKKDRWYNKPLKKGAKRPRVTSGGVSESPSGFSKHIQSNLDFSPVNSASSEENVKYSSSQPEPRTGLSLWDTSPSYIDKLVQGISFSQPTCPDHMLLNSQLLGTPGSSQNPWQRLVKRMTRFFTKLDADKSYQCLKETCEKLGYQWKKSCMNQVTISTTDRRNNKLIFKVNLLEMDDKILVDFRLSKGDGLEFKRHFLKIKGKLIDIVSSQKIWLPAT
Data set [9] addresses Epidermal growth factor receptor (Homo sapiens, UniProt P00533). Briefly: Inhibition of EGFR (unknown origin).
Data set [10] deals with Hepatocyte growth factor receptor (Homo sapiens, UniProt P08581). The data set is described as follows: Inhibition of MET (unknown origin).
For data set [11], the target named is cAMP-dependent protein kinase (PKA) (Homo sapiens, UniProt P22694+P17612+P22612). Briefly: Inhibition of PKA (unknown origin). It is filed as protein assay.
Data set [12] concerns the target Protein kinase C alpha type (Homo sapiens, UniProt P17252). The data set is described as follows: Inhibition of PKCalpha (unknown origin).
Data set [13] concerns the target NT-3 growth factor receptor (Homo sapiens, UniProt Q16288). Briefly: Inhibition of TRKC (unknown origin).
Data set [14] concerns the target ALK tyrosine kinase receptor (Homo sapiens, UniProt Q9UM73). The data set is described as follows: Inhibition of ALK (unknown origin).
The target of data set [15] is Tyrosine-protein kinase JAK2 (Homo sapiens, UniProt O60674). The data set is described as follows: Inhibition of JAK2 (unknown origin).
In data set [16] the target is RAC-alpha serine/threonine-protein kinase (Homo sapiens, UniProt P31749). Briefly: Inhibition of AKT1 (unknown origin).
Data set [17] has as its target BDNF/NT-3 growth factors receptor (Homo sapiens, UniProt Q16620). The data set is described as follows: Inhibition of TRKB (unknown origin).
Another data set addresses Insulin receptor (Homo sapiens, UniProt P06213). Briefly: Inhibition of INSR (unknown origin).
Data set [18] concerns the target Cyclin-dependent kinase 1 (Homo sapiens, UniProt P06493). The data set is described as follows: Inhibition of CDK1 (unknown origin).

Bounds are passed on as bounds.

Vascular endothelial growth factor receptor 2, sequence (P35968 whole entry): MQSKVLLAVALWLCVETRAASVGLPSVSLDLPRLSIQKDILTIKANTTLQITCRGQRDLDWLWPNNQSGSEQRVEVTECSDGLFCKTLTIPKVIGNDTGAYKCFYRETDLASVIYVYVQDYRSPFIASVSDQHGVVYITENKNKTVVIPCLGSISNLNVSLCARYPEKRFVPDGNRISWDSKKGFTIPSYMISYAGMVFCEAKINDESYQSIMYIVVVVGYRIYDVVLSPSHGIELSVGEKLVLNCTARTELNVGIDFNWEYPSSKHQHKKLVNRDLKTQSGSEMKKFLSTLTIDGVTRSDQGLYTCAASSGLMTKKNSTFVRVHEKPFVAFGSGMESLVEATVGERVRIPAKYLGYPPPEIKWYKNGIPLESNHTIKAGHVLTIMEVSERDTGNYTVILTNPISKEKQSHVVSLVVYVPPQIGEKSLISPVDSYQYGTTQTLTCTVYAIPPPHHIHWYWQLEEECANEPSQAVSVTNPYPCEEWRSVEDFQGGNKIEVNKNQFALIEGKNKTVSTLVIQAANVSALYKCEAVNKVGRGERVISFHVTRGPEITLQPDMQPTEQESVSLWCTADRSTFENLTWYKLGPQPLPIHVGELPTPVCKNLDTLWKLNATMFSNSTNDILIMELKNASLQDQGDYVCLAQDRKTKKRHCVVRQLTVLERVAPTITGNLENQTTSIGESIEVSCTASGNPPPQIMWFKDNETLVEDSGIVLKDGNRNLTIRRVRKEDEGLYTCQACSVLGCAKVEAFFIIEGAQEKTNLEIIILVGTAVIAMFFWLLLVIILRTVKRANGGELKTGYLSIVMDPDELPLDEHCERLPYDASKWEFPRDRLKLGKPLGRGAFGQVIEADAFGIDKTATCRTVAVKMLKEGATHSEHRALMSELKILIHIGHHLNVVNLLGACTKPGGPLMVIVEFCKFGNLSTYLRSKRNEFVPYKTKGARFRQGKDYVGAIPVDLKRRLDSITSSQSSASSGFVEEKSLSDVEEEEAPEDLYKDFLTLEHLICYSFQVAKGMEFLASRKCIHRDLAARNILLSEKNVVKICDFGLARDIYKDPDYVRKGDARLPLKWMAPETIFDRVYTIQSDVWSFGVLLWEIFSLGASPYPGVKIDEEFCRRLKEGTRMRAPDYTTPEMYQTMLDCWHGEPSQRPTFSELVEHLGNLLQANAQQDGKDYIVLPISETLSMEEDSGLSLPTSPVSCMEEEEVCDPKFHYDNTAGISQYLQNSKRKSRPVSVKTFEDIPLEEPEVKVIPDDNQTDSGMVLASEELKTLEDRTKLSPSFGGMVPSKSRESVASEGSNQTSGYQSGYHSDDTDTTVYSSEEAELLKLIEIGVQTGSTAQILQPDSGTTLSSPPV
Epidermal growth factor receptor, sequence (P00533 whole entry): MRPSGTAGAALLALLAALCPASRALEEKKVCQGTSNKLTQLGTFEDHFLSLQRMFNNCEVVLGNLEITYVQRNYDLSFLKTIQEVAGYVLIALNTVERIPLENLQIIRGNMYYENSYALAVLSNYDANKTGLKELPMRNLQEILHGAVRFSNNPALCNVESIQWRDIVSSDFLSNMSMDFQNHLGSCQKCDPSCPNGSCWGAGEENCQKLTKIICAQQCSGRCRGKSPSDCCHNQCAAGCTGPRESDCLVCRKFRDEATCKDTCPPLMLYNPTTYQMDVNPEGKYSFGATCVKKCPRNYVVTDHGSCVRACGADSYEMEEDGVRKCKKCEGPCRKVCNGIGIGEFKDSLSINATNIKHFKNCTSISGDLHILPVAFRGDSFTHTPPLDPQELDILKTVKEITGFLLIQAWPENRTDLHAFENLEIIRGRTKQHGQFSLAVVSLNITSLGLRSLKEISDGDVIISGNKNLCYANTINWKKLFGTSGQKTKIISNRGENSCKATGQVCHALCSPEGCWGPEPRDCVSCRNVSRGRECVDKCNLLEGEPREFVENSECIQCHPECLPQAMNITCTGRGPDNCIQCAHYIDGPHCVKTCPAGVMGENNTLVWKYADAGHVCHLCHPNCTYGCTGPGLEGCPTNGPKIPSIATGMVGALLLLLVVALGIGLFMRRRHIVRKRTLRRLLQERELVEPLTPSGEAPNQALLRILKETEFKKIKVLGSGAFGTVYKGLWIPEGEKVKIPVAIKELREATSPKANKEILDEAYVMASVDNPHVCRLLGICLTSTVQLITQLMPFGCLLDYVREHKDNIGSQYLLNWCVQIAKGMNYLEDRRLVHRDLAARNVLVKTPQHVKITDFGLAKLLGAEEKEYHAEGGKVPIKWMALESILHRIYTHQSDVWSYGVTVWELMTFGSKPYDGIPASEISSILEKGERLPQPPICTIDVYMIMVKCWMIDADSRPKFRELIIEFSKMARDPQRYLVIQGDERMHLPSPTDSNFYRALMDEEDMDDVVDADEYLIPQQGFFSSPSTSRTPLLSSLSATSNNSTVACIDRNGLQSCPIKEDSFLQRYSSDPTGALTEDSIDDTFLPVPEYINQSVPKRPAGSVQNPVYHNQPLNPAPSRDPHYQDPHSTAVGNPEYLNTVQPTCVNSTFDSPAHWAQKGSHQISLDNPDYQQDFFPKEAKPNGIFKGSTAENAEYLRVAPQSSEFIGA

Consider `CC(C)(C)NC(=O)c1cc(C#N)nc(C#Cc2ccc3c4c(oc3c2)C(C)(C)c2cc(NS(C)(=O)=O)ccc2C4=O)c1`, for which the fold induction at 1 h, 1 µM on CYP3A4 was determined as 11. Also, the IC50 in the data set on NIH3T3 was 67 nM; in [1], 58 nM; in data set [2], 2.8 nM; in data set [3] it was above 1000 nM.
For `CC(C)(C)NC(=O)c1cc(C#Cc2ccc3c4c(oc3c2)C(C)(C)c2cc(NS(C)(=O)=O)ccc2C4=O)nc(C(F)(F)F)c1` the same measures were 2.5, 55 nM, 130 nM, 2.6 nM and above 1000 nM.
For `CC1(C)c2cc(OCCN3CCOCC3)ccc2C(=O)c2c1oc1cc(C#Cc3cc(OCC4CC4)ccn3)ccc21`, the IC50 in data set [4] is above 10000 nM; in [5], above 10000 nM; in [6] it was above 10000 nM; in [7], 2000 nM; in [8] it was above 10000 nM; in data set [9] it was above 10000 nM. Further, the IC50 was above 10000 nM in data set [10]; above 10000 nM in data set [11]; above 10000 nM in data set [12]; 6.9 nM in data set [13]; 2800 nM in data set [14]; above 10000 nM in data set [15]. Further, the IC50 in data set [16] is above 10000 nM; in [17] it was 8.1 nM; in data set [2], 4.5 nM; on Insulin receptor, above 10000 nM; in data set [3], 757 nM; in data set [18], above 10000 nM. For the same molecule, the fold induction at 1 h, 1 µM at CYP3A4 came out at 6.5.
Consider `CC(C)(C)NC(=O)c1cc(Cl)nc(C#Cc2ccc3c4c(oc3c2)C(C)(C)c2cc(NS(C)(=O)=O)ccc2C4=O)c1`, for which the fold induction at 1 h, 1 µM on CYP3A4 came to 3. In addition, the IC50 with NIH3T3 was 48 nM; in data set [1] it was 180 nM; in [2], 2.2 nM; in data set [3], above 1000 nM.
